Patent US9670197B2, “Small molecule modifiers of the Hec1-Nek2 interaction in G2/M” (The Regents of the University of California, priority 2013, dated 2017)
Where a SMILES comes first, the peptide text is derived from it. The star is where a group is joined. Cbz = O=C(OCc1ccccc1)*

Columns and labels:
[1] = test system: MB468; test: Cancer cell growth inhibition, MB468 (MDA-MB-468); type: cell-based; conditions: Homo sapiens, Table 1, MB468, read-out: MB468 IC50
[2] = test system: HeLa; test: Cancer cell growth inhibition, HeLa; type: cell-based; conditions: Homo sapiens; Table 1, HeLa; read-out: HeLa IC50
Description: Cell lines and establishment of stable cell lines. Human breast cancer cell lines MDA-MB-231 and MDA-MB-468, osteosarcoma line U20S, cervical adenocarcinoma line HeLa, and normal skin fibroblast Hs27 were maintained in DMEM medium (Invitrogen, Grand Island, N.Y.) supplemented 10% fetal bovine serum (FBS) and 1% penicillin-streptomycin. The leukemia cell line K562 and glioblastoma cell line T98G were grown in RPMI 1640 supplemented 10% FBS and 1% penicillin-streptomycin. Normal mammary gland epithelial cell line MCF10A was cultured in DMEM/F12 (50:50) plus 5% horse serum, 0.1 μg/mL cholera toxin, 10 μg/mL insulin, 0.5 μg/mL hydrocortisone, and 20 ng/mL epidermal growth factor. To establish MDA-MB-468 cells that stably expressed each individual GFP-Hec1 deletion construct described above, cells were infected with retrovirus expressing GFP-Hec1 WT, GFP-Hec1 W395A and GFP-Hec1 WLK/AAA, and were selected with 2 μg/ml puromycin.

[3] = test system: cancer cell lines; test: Cancer cell growth inhibition; type: cell-based
[4] = test system: Nek2; test: Nek2 protein level in treated HeLa cells, western blot; type: cell-based; conditions: co-treatment with INH41 or INH154
Description: INH-induced Nek2 degradation; INH-inhibition of Hec1 phosphorylation by Nek2. […] To evaluate whether INH treatment affected cell cycle profile or Nek2 mRNA level, we performed FACS and real-time PCR analysis.
Protein extraction and western blot analysis. The protein extractions and western blot analyses of Examples 4-6 were conducted as follows. Cell extracts were prepared and equal amounts of protein were separated by SDS-PAGE (10% w/v gel) followed by electrophoretic transfer to PVDF membranes (Millipore, Billerica, Mass.). After blocking with 5% w/v powdered non-fat milk, the membrane was incubated with different antibodies for overnight at 4° C. and treated for 1 hr with horseradish peroxidase-conjugated goat anti-mouse IgG and goat anti-rabbit IgG antibodies (GeneTex, Irvine, Calif.). ECL detection of the horseradish peroxidase reaction was performed according to the manufacturer's instructions (Millipore, Billerica, Mass.). Protein signal was measured on a LAS 4000 mini Imaging System (Fujifilm, Valhalla, N.Y.).

[5] = test system: Hec1; test: Biotin-conjugated INH pull-down of Hec1 and Hec1 mutants; type: binding

SMILES: COc1cc(C)cc(C)c1-c1csc(NC(=O)c2ccncc2)n1 [INH56]
- IC50 [1]: 4500 nM
- IC50 [2]: 1800 nM

SMILES: Cc1cc([N+](=O)[O-])cc(C)c1-c1csc(NC(=O)c2ccncc2)n1 [INH78, N-(4-(2,6-Dimethyl-4-nitrophenyl)thiazol-2-yl)isonicotinamide]
- IC50 [1]: 1400 nM
- IC50 [2]: 630 nM
- inhibition of cancer cell growth, IC50 (in words) [3]: sub-micromolar IC50

SMILES: Cc1cc(N)cc(C)c1-c1csc(NC(=O)c2ccncc2)n1 [INH79, N-(4-(4-amino-2,6-dimethylphenyl)thiazol-2-yl)isonicotinamide]
- IC50 [1]: 3200 nM
- IC50 [2]: 2300 nM

SMILES: Cc1cc(F)cc(C)c1-c1csc(NC(=O)c2ccncc2)n1 [INH80, N-(4-(4-fluoro-2,6-dimethylphenyl)thiazol-2-yl)isonicotinamide]
- IC50 [1]: 4400 nM
- IC50 [2]: 2000 nM

SMILES: COc1cncc(Oc2cc(C)c(-c3csc(NC(=O)c4ccncc4)n3)c(C)c2)n1 [INH81, N-(4-(4-((6-methoxypyrazin-2-yl)oxy)-2,6-dimethylphenyl)thiazol-2-yl)isonicotinamide]
- IC50 [1]: 400 nM
- IC50 [2]: 1400 nM
- inhibition of cancer cell growth, IC50 (in words) [3]: sub-micromolar IC50

SMILES: Cc1cc(NC(=O)C2CC2)cc(C)c1-c1csc(NC(=O)c2ccncc2)n1 [INH136, N-(4-(4-((cyclopropylcarbonyl)amino)-2,6-dimethylphenyl)thiazol-2-yl)isonicotinamide]
- IC50 [1]: 3400 nM
- IC50 [2]: 1500 nM

SMILES: Cc1cc(NC(=O)CCC(=O)O)cc(C)c1-c1csc(NC(=O)c2ccncc2)n1 [INH146, 4-(4-(2-(isonicotinamido)thiazol-4-yl)-3,5-dimethylphenylamino)-4-oxobutanoic acid]
- IC50 [1]: > 10000 nM
- IC50 [2]: > 5000 nM

SMILES: Cc1cc(NCC(=O)O)cc(C)c1-c1csc(NC(=O)c2ccncc2)n1 [INH156, N-(4-(2-(Isonicotinamido)thiazol-4-yl)-3,5-dimethylphenyl)-glycine]
- IC50 [1]: 9400 nM
- IC50 [2]: 2400 nM

SMILES: Cc1cc(N2C(=O)CCC2=O)cc(C)c1-c1csc(NC(=O)c2ccncc2)n1 [INH160, N-(4-(4-(2,5-dioxopyrrolidin-1-yl)-2,6-dimethylphenyl)thiazol-2-yl)isonicotinamide]
- IC50 [1]: 3300 nM
- IC50 [2]: 5000 nM

SMILES: Cc1cc(N2CCOCC2)cc(C)c1-c1csc(NC(=O)c2ccncc2)n1 [INH168]
- IC50 [1]: 120 nM
- IC50 [2]: 200 nM
- inhibition of cancer cell growth, IC50 (in words) [3]: sub-micromolar IC50

SMILES: Cc1cc(C#N)cc(C)c1-c1csc(NC(=O)c2ccncc2)n1 [INH174, N-(4-(4-Cyano-2,6-dimethylphenyl)thiazol-2-yl)isonicotinamide]
- IC50 [1]: 500 nM
- IC50 [2]: 600 nM
- inhibition of cancer cell growth, IC50 (in words) [3]: sub-micromolar IC50

SMILES: Cc1cc(O)cc(C)c1-c1csc(NC(=O)c2ccncc2)n1 [INH182, N-(4-(4-hydroxy-2,6-dimethylphenyl)thiazol-2-yl)isonicotinamide]
- IC50 [1]: 2000 nM
- IC50 [2]: 3500 nM

SMILES: Cc1cc(N2CCN(C)CC2)cc(C)c1-c1csc(NC(=O)c2ccncc2)n1 [INH212, N-(4-(2,6-dimethyl-4-(4-methylpiperazin-1-yl)phenyl)thiazol-2-yl)isonicotinamide]
- IC50 [1]: 2400 nM
- IC50 [2]: 2500 nM

SMILES: CC(C)C[C@@H](C=O)NC(=O)[C@H](CC(C)C)NC(=O)[C@H](CC(C)C)NC(=O)OCc1ccccc1 [MG132, reference compound] (Cbz-Leu-Leu-Leu-aldehyde)
- effect on INH-induced degradation of Nek2 [4]: prevented INH-induced degradation of Nek2

SMILES: Cc1cc(N2CCC(OCCOCCOCCOCCNC(=O)CCCC[C@@H]3SC[C@@H]4NC(=O)N[C@@H]43)CC2)cc(C)c1-c1csc(NC(=O)c2ccncc2)n1 [biotin-INH154, N-(4-(2,6-dimethyl-4-(4-((13-oxo-17-((3aS,4S,6aR)-2-oxohexahydro-1H-thieno [3,4-d]imidazol-4-yl)-3,6,9-trioxa-12-azaheptadecyl)oxy)piperidin-1-yl)phenyl)thiazol-2-yl)isonicotinamide]
- binding of Hec1 W395A and W395A/L399A/K400A mutants [5]: neither mutant was able to bind
